According to patent US4421767A, “Compounds and methods for treating depression” (priority 1982, dated 1983):
pIC50: −log10 of the molar value. Read-outs that look alike come from different tables or passages of the source.

Assays:
MAO [1] = assay: In vitro MAO inhibition; assay type: biochemical
MAO [2] = assay: Ex vivo MAO activity in rats, protection by extracerebral AADC inhibitor; parameters: species or system rat; details: carbidopa 50 mg/kg i.p. with AFHBA, compared with MFMD 2.0 mg/kg i.p., heart
Description: (§1) Rats were injected with AFHBA (0.5 mg/kg, i.p.) alone or with AFHBA (0.5 mg/kg, i.p.) in combination with MFMD (2.0 mg/kg, i.p.) administered 30 minutes before AFHBA. Animals were killed 18 hours later and MAO activity (5-HT and phenethylamine as substrates) was determined in brain, heart, and liver. In the brain, AFHBA administered alone inhibited neuronal MAO by 72% and non-neuronal MAO by 37%.
MAO activity was determined in the brain using 5-HT and phenethylamine (PEA) as substrates.

[3] = test system: brain noradrenaline and 5-HT concentrations; assay: Brain amine concentration, AFHBA with or without carbidopa pretreatment in rats (Table II); assay type: in vivo, rat; details: for Brain Amine Concentration, 5-HT / Brain Amine Concentration, Noradrenaline: 5 days
Description: (§2) (B) Rats were gavaged with saline or carbidopa given at dosage of 10 or 100 mg/kg. Thirty minutes later, the rats were gavaged with saline or AFHBA given at a dosage of 62.5 μg/kg. This treatment was repeated daily for 5 days. On the 6th day, the rats were anaesthetized and heart rate and blood pressure responses to tyramine (0.3-50 mg/kg, i.d.) were determined. Additionally, monoamines and MAO activity were determined in various tissues, including brain.

[4] = test system: heart rate and blood pressure responses to tyramine; assay type: in vivo, rat; details: for Tyramine Potentiation: 5 days, tyramine i.d.
Description: as §2

MAO [5] = details: literature; cited from earlier work
depression = details: literature; cited from earlier work
cheese effect = details: low dosages where preferential inhibition of MAO-B occurs; cited from earlier work
MAO-B = details: literature; cited from earlier work
[6] = test system: heart rate and blood pressure responses to tyramine; assay: Potentiation of tyramine response after 5 days oral MAO inhibitor in rats (Table I); assay type: in vivo, rat; details: for Tyramine Potentiation: 5 days, tyramine i.d.
Description: (A) Rats were gavaged daily for 5 days with saline or 2-amino-4-fluoro-3-(3'-hydroxyphenyl)-3-butenoic acid (AFHBA) at dosages of 15.6, 62.5, 250, or 1000 μg/kg or with clorgyline at dosages of 1250 or 5000 μg/kg. On the 6th day, rats were anaesthetized and heart rate and blood pressure responses to tyramine (0.3-50 mg/kg) administered intraduodenally (i.d.) were determined. Additionally, monoamines and MAO activity were determined in various tissues including brain.

MAO-A = details: literature; cited from earlier work
[7] = test system: brain noradrenaline and 5-HT concentrations; assay: Brain amine concentration after 5 days oral MAO inhibitor in rats (Table I); assay type: in vivo, rat; details: for Brain Amine Concentration, 5-HT / Brain Amine Concentration, Noradrenaline: 5 days
Description: On the 6th day, rats were anaesthetized and heart rate and blood pressure responses to tyramine (0.3-50 mg/kg) administered intraduodenally (i.d.) were determined. Additionally, monoamines and MAO activity were determined in various tissues including brain.

non-neuronal MAO = assay: Ex vivo MAO activity after i.p. injection in rats, non-neuronal MAO; parameters: species or system rat; details: AFMBA 100 mg/kg i.p., 18 hours
Description: as §1
(§3) III. Rats were injected with AFMBA (100 mg/kg, i.p.) and were killed 18 hours later. MAO activity was determined in the brain, heart, and liver using 5-HT and PEA.

neuronal MAO = assay: Ex vivo MAO activity after i.p. injection in rats, neuronal MAO; parameters: species or system rat; details: AFMBA 100 mg/kg i.p., 18 hours
Description: as §1, §3

[8] = carbidopa alone 10000 μg/kg daily p.o.
[9] = carbidopa alone 100000 μg/kg daily p.o.
[10] = Clorgyline 5000 μg/kg daily p.o.
[11] = Clorgyline 1250 μg/kg daily p.o.

In the case of `NCC(=CF)c1cccc(O)c1` [2-(3'-hydroxy)phenyl-3-fluoroallylamine], the MAO inhibition type (MAO [1]) was “time-dependent irreversible inhibitor” and the pIC50 (MAO [1]; unit inferred) was about 9.00.

For `C[C@@](Cc1ccc(O)c(O)c1)(NN)C(=O)O` [Carbidopa, reference compound], the “protective effect against inhibition of MAO in the heart” value (MAO [2]) was “same protective effect against inhibition of MAO in the heart as MFMD”, the “elevation of brain monoamines on coadministration with AFHBA” value ([3]; carbidopa 10 mg/kg + AFHBA 62.5 μg/kg) was “significantly enhanced the elevation of brain monoamines” and the “effectiveness of AFHBA to raise brain monoamines on coadministration” value ([3]; carbidopa 100 mg/kg + AFHBA) was “reduced the effectiveness of AFHBA to raise brain monoamines”. For the same compound, the “Brain Amine Concentration, 5-HT” value [3, 8] was 599 ± 31 ng/g, the “Brain Amine Concentration, Noradrenaline” value [3, 8] was 366 ± 3 ng/g and the “Brain Amine Concentration, 5-HT” value [3, 9] was 443 ± 19 ng/g. For the same compound, the “Brain Amine Concentration, Noradrenaline” value [3, 9] was 271 ± 19 ng/g, the “effect on tyramine response” value ([4]; carbidopa alone 10 mg/kg) was “no effect on tyramine response” and the “Tyramine Potentiation” value [4, 8] was 1.1. The “Tyramine Potentiation” value [4, 9] was 2.3 and the “effect on tyramine response” value ([4]; carbidopa alone 100 mg/kg) was “potentiated the tyramine response”.

In the case of `Cc1cc(C(=O)NNCc2ccccc2)no1` [isocarboxazid], the “preference of action upon MAO” value (MAO [5]) is given as “not preferential in their action upon MAO”.

In the case of `C#CCN(C)[C@H](C)Cc1ccccc1` [L-deprenyl], the clinical antidepressant effect (depression) is listed as “clinically effective antidepressant agents” and the cheese effect (cheese effect) is listed as “not observed”.

In the case of `N[C@@H]1C[C@H]1c1ccccc1` (relative stereo) [tranylcypromine], the “preference of action upon MAO” value (MAO [5]) is given as “not preferential in their action upon MAO”.

In the case of `NNCCc1ccccc1` [phenelzine], the “preference of action upon MAO” value (MAO [5]) is given as “not preferential in their action upon MAO”.

For `C#CCN(C)Cc1ccccc1` [pargyline], the clinical antidepressant effect (depression) is listed as “clinically effective antidepressant agents”, the “selectivity at lower versus higher dosages” value (MAO [5]) is listed as “selective inhibitors at lower dosages, but are not selective inhibitors at higher dosages” and the “preferential inhibition of MAO-B” value (MAO-B) is listed as “preferentially inhibited”.

For `C#CCN(C)CCCOc1ccc(Cl)cc1Cl` [Clorgyline, reference compound], the “Tyramine Potentiation” value ([6]; Clorgyline 1250 μg/kg daily p.o., some potentiation at lowest doses of tyramine (footnote c)) was 1.0, the “Tyramine Potentiation” value [6, 10] was 5.0 and the “potentiation of the tyramine response (dose relation)” value ([6]; subacute treatment) was “potentiation of the tyramine response”. For the same compound, the clinical antidepressant effect (depression) was “clinically effective antidepressant agents”, the “preferential inhibition of MAO-A” value (MAO-A) was “preferentially inhibited” and the “selectivity at lower versus higher dosages” value (MAO [5]) was “selective inhibitors at lower dosages, but are not selective inhibitors at higher dosages”. For the same compound, the “Brain Amine Concentration, 5-HT” value [7, 11] was 620 ± 34 ng/g, the “Brain Amine Concentration, Noradrenaline” value [7, 11] was 351 ± 11 ng/g and the “Brain Amine Concentration, 5-HT” value [7, 10] was 1027 ± 82 ng/g. The “Brain Amine Concentration, Noradrenaline” value [7, 10] was 329 ± 19 ng/g and the “brain noradrenaline and 5-HT concentrations (dose relation)” value ([7]; subacute treatment) was “dose-related increases in brain noradrenaline and 5-HT concentrations”.

For `COc1ccc(C(=CF)C(N)C(=O)O)cc1O` (centres unmarked) [AFMBA, 2-amino-4-fluoro-3-(3'-hydroxy-4-methoxyphenyl)-3-butenoic acid], the “% Inhibition of MAO, Non-neuronal” value (non-neuronal MAO; brain) was 40%, the “% Inhibition of MAO, Non-neuronal” value (non-neuronal MAO; heart) was 46% and the “% Inhibition of MAO, Non-neuronal” value (non-neuronal MAO; liver) was 11%. The “% Inhibition of MAO, Neuronal” value (neuronal MAO; brain) was 16%, the “% Inhibition of MAO, Neuronal” value (neuronal MAO; heart) was 18% and the “% Inhibition of MAO, Neuronal” value (neuronal MAO; liver) was 2%.
